# Reference: PMC3064516 (Nature structural & molecular biology, 2011)
# Target: Autotaxin (ATX, ENPP2) (Homo sapiens, UniProt Q13822)
# Assay: nucleotide phosphodiesterase assay, Km
# Type: biochemical
smiles,measurement,value
"Cc1cn([C@H]2C[C@H](O)[C@@H](COP(=O)(O)Oc3ccc([N+](=O)[O-])cc3)O2)c(=O)[nH]c1=O [pNP-TMP, p-nitrophenyl thymidine 5′-monophosphate]",Km,1930 ± 200 µM
